# Legend:
# tubulin = test: In vitro tubulin-polymerization assay (turbidity at 350 nm); assay type: biochemical; conditions: 10 µM
# Procedure: Tubulin-polymerization inihibition was measured using in vitro Tubulin-Polymerization Assay Kit purchased fromEMD Millipore Corporation. Polymerization reactions occur in 70 µL final volumes, of which 60 µL is the 60 µM tubulin in 1 × PB-GTP and 10 µL is the test substance dissolved in 1 × PB-GTP. […] These reactives were combined in 96-well plate on ice. After the plate was transferred into the spectrophotometer pre-warmed at 37 °C and the turbidity variation was measured every 30 s at 350 nm for 90 min. The plate was shaked for 10 s before each measurement. Turbidity (absorbance) readings were used to calculate the extent of polymerization [% inhibition = (1−A350 sample/A350 control) × 100].
# Figure 4 Tubulin-polymerization assay. […] Two positive control molecules, Paclitaxel and Vinblastine, were used as tubulin-stabilizing and tubulin-destabilizing agents, respectively. DMSO was used as a negative control. Assembly of tubulin into microtubules was determined by measuring the turbidity at 350 nm for 3600 s at 37 °C. All the compounds were used at a concentration of 10 μM.
# [1] = target: T1, human topoisomerase I (hTopo I) (Homo sapiens, UniProt P11387); test: Human topoisomerase I relaxation assay; assay type: biochemical; conditions: 1 μM
# T1 construct: purchased TopoGEN, Port Orange, FL, USA
# T1 sequence (P11387 1-765): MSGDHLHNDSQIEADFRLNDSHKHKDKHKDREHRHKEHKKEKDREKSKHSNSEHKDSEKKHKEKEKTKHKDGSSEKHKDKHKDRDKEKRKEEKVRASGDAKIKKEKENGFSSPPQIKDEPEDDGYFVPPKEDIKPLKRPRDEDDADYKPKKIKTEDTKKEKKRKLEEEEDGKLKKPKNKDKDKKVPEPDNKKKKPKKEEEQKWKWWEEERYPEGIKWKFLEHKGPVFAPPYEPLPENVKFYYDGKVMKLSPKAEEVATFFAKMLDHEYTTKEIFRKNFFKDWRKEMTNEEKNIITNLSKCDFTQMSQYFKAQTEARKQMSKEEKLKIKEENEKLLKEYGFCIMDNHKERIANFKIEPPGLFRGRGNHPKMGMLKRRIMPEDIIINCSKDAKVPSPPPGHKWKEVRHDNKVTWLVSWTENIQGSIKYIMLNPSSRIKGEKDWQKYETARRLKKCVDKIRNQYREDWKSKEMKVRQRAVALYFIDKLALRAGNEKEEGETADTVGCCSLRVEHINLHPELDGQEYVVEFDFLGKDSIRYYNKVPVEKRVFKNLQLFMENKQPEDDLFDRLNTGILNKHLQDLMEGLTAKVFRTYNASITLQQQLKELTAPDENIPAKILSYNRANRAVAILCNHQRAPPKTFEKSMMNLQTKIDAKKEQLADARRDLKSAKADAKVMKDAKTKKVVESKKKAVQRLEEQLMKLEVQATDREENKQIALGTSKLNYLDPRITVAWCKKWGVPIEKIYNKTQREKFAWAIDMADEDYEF
# Procedure: Topoisomerases are essential enzymes involved in DNA metabolism, because of their ability to cause temporary DNA strand breakage, and tightly involved, if overexpressed, in cancer development.
# hTopo I relaxation assays have been performed in a final volume of […], as reported by Iacopetta et al., incubating […] of supercoiled plasmid pHOT1 in Tris-EDTA (TE) buffer (TopoGEN, Port Orange, FL, USA) with tested compounds and recombinant hTopo I (2 units) (TopoGEN, Port Orange, FL, USA) for 1h at 37 °C. The obtained solution has been loaded in a 1% agarose gel containing 1× Tris-acetate-EDTA (TAE) buffer without ethidium bromide (EB). Agarose gel has been stained using 1× TAE buffer with EB ([…]) for 30 min and after washed with distilled water for 15 min. At the end, it has been visualized by using a ultraviolet (UV) transilluminator. The experiment was performed in triplicate.
# Figure 7 hTopoI assay.
# MDA-MB-231 cells [2] = test: Detection of intracellular ROS (DCF-DA); assay type: cell-based, human
# Procedure: We used 2,7-dichlorofluorescin diacetate (DCF-DA) as a fluorometric probe for ROS detection and their production was examined under an inverted fluorescence microscope, as already reported.
# Cells were grown on glass coverslips until the treatment with compound or menadione (used as positive control) (Sigma–Aldrich, Milan, Italy). Then, cells were incubated with 10 μM 2′-7′-Dichlorofluorescein diacetate (Sigma–Aldrich, Milan, Italy) for 40 min at 37 °C in a 5% CO2 incubator, as previously described. Then, DAPI (0.2 μg mL^−1) counterstain was performed for 10 min at room temperature, in the dark. Cells were then washed three times with cold PBS, adding one drop of mounting solution, then they were observed and imaged under a fluorescence microscope (Leica DM6000; 20× magnification) with excitation/emission wavelength maxima of 490 nm/515 nm (DCF) or 350 nm/460 nm (DAPI). Images are representative of three independent experiments.
# Images were acquired at 20× magnification. […] Fields are representative of three separate experiments.
# MDA-MB-231 cells [3] = conditions: at IC50 value, 24 h
# caspase-9 = conditions: 5 μM, 24 h, MDA-MB-231 cells
structure (smiles),measurement,setting,value
"C[n+]1c(Cl)c(Cl)n(CC(O)c2ccccc2)[c]1[Au-][c]1n(CC(O)c2ccccc2)c(Cl)c(Cl)[n+]1C.[Cl][Au-][Cl] (racemic) [AuL7, bis-[4,5-dichloro-(N-methyl-N’(2-hydroxy-2-phenyl)ethyl-imidazole-2-ylidene)gold(I)]^+[dichloro-gold]^−]",effect on tubulin-polymerization reaction,tubulin,tubulin-polymerization inhibitor
same,final optical density value at 350 nm (OD350),"tubulin; 37 °C, vehicle (DMSO) about 0.43",about 0.25
same,inhibition of hTopo I supercoil relaxing activity,[1],totally inhibition
same,"ROS production, fold lesser compared to Men-treated cells",MDA-MB-231 cells [2]; DCF fluorescence quantified by ImageJ,1.5 fold
same,ROS production (DCF green fluorescence),MDA-MB-231 cells [2]; fluorescence microscopy,significantly higher with respect to the vehicle-treated cells
same,apoptosis (TUNEL),MDA-MB-231 cells [3],green nuclear fluorescence
same,caspase-9 activity,caspase-9,discrete increase
